We go through 1 compound from PMC12670426 (Journal of Medicinal Chemistry, 2025).

Data set [1] in a line: Plasma stability assay, rat plasma. Format: in vitro ADME. To be noted: 37 °C. As for the experimental part:
Test compounds (10 μM) were incubated with mouse, rat, or human pooled plasma from 50 donors (Biowest) at 37 °C for 20, 60, and 120 min. Reactions were terminated by adding four volumes of ice-cold methanol, followed by vigorous mixing. Samples were kept at −20 °C for 30 min and then stored at 4 °C overnight. The next day, samples were centrifuged, and supernatants were diluted with four volumes of 30% methanol in water. Zero time points were prepared by adding ice-cold methanol to the compound prior to the addition of plasma. Samples were then analyzed on an Echo MS system (SCIEX) using multiple reaction monitoring (MRM). The only exception was compound 3af, which was analyzed by LC–MS/MS (SCIEX 6500 triple quadrupole) due to its weak ionization in Echo-MS.

Data set [2] can be described thus: Cytotoxicity assay, Jurkat E6.1. Type of data set: cell-based. To be noted: human, Jurkat E6.1 cells, viability dye, flow cytometry. As for the experimental part: (§1) To evaluate in vitro cytotoxicity and support its potential application in inflammatory and fibrotic disease models, the following panel of cell lines, representing the relevant biological systems, was used: HEK293, HepG2, THP1, Jurkat E6.1, and LX2. HEK293, HepG2, and Jurkat E6.1 cells were seeded at 400,000 cells/mL, THP1 cells at 500,000 cells/mL, and LX2 cells at 200,000 cells/mL in 96-well plates (cell culture-treated, VWR) in 100 μL/well. Cells were treated with the tested compounds in a serial dilution (300, 100, 33.3, 11.1, and 3.7 μM) for 24 h. Untreated cells served as negative controls to establish the baseline viability threshold. Cell viability was assessed using a viability dye (Zombie Violet Fixable Viability Kit, BioLegend) following the manufacturer’s instructions and analyzed by flow cytometry (see below).
(§2) Cells or beads from screening assays prepared for flow cytometry were analyzed by the CytoFlex S instrument (Beckman Coulter). Data acquisition was performed using CytExpert software (v2.5, Beckman Coulter). Debris was excluded by forward and side scatter gating, followed by doublet exclusion. Data were analyzed using FlowJo software (v10, BD Biosciences).

Data set [3] can be described thus: Cytotoxicity assay, HepG2. Type of data set: cell-based. The note with it: human, HepG2 cells, viability dye, flow cytometry. As for the experimental part:
as §1, §2

The nature of data set [4]: Cytotoxicity assay, HEK293. Format: cell-based. The note with it: human, HEK293 cells, viability dye, flow cytometry. Here is the method:
as §1, §2

Data set [5] can be described thus: Microsomal stability assay, mouse liver microsomes. Type of data set: in vitro ADME. The note with it: pooled liver microsomes, pH 7.4, mouse liver microsomes 0.5 mg/mL, NADPH. Here is the method:
Microsomal stability was determined using 0.5 mg/mL of pooled human, mouse, or rat liver microsomes (Thermo Fisher Scientific) in 90 mM TRIS-Cl buffer (pH 7.4) containing 2 mM NADPH and 2 mM MgCl2. Test compounds (10 μM) were added, and the resulting mixture was incubated at 37 °C for 10, 60, 120, and 180 min. The reactions were terminated by the addition of four volumes of ice-cold methanol, followed by vigorous mixing. The samples were left at −20 °C for 30 min and then stored at 4 °C overnight. The next day, samples were centrifuged, and supernatants were diluted with four volumes of 30% methanol in water. Zero time points were prepared by adding ice-cold methanol to the mixture of compounds and cofactors prior to the addition of microsomes. The samples were then analyzed using the Echo-MS system (SCIEX) with MRM transition monitoring, except for compound 3af, which was analyzed by LC–MS/MS as described in the plasma stability assay.

For data set [6], the target named is T1, intracellular Gal-3 in THP1 cells (Homo sapiens, UniProt P17931).
T1 construct: Untreated cells served as negative and baseline controls representing maximum intracellular Gal-3 levels; endogenous in cells; host or cells: THP1 (monocyte-like or PMA-differentiated macrophage-like)
T1 sequence (P17931 whole entry): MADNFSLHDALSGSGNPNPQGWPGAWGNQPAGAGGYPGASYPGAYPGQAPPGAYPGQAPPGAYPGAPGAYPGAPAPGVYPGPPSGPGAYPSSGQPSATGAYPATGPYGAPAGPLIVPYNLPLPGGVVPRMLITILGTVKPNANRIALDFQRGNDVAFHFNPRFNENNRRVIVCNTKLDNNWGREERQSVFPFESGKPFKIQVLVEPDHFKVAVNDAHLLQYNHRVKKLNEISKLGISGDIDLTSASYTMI
The data set is described as follows: Intracellular Gal-3 target engagement in THP1 cells (flow cytometry, MFI). Type of data set: cell-based. To be noted: 2 h. Here is the method:
THP1 cells were used to assess the binding of the tested compounds to Gal-3. Cells were either maintained in suspension as undifferentiated monocyte-like cells or differentiated into macrophage-like cells by overnight treatment with phorbol 12-myristate 13-acetate (PMA, Sigma-Aldrich) at a final concentration of 10 ng/mL. […] Untreated cells served as negative and baseline controls representing maximum intracellular Gal-3 levels. Cells were then harvested and intracellularly stained either with galectin-3 monoclonal antibody eF660 (Invitrogen, Thermo Fisher Scientific) or a relevant isotype antibody (Invitrogen, Thermo Fisher Scientific) for flow cytometric analyses (see below). A dose-dependent decrease in Gal-3 signal upon compound treatment was used to assess intracellular target engagement expressed as median fluorescent intensity (MFI).
as §2

A further data set is described as follows: Cytotoxicity assay, THP1. Type of data set: cell-based. The note with it: human, THP1 cells, viability dye, flow cytometry. As for the experimental part:
as §1, §2

A short description of data set [7]: Kinetic solubility assay in PBS. Type of data set: physicochemical. The note with it: aqueous buffer, kinetic from dmso stock; PBS at pH 7.4, 100 μM final, 2 h room temperature. As for the experimental part:
The solutions were incubated at room temperature for 2 h and filtered by centrifugation. Filtrates were diluted 100-fold with 50% acetonitrile in water and then analyzed on the Echo-MS system (SCIEX) using MRM transition monitoring, except for compound 3af, which was analyzed by LC–MS/MS as described in the plasma stability assay. Compound concentrations were quantified against calibration curves prepared in the identical matrix as the samples.

Data set [8] is described as follows: Plasma protein binding assay (rapid equilibrium dialysis), mouse plasma. Type of data set: in vitro ADME. The note with it: fraction bound, read-out: plasma protein binding Fb mouse (converted). Here is the method:
(§3) Test compound (10 μM) was incubated at 37 °C for 4 h with mouse, rat, or human plasma (Biowest) in the donor well of a rapid equilibrium dialysis plate (Thermo Fisher Scientific). PBS was placed in the acceptor well. To stop the assay, samples were collected from both wells, and an equal volume of plasma was added to the PBS sample, and vice versa. Proteins were then precipitated by adding three volumes of ice-cold methanol. Samples were mixed gently, kept at −20 °C for 30 min, and then stored at 4 °C overnight. The next day, the samples were centrifuged, and the supernatants were diluted with four volumes of 30% methanol in water. The samples were then analyzed using the Echo-MS system (SCIEX) with MRM transition monitoring, except for compound 3af, which was analyzed by LC–MS/MS as described in the plasma stability assay.

The nature of data set [9]: Plasma protein binding assay (rapid equilibrium dialysis), human plasma. The note with it: fraction bound, read-out: plasma protein binding Fb human (converted). Format: in vitro ADME. Here is the method:
as §3

A value given as a limit tells only on which side of the number the result lay.

In turn, `CC(=O)N(c1cc(C(=O)O)cc2[nH]ccc12)[C@@H]1O[C@H](CO)[C@@H](S[C@@H]2O[C@H](CO)[C@H](O)[C@H](n3cc(-c4cccc(F)c4)nn3)[C@H]2O)[C@H](O)[C@H]1O` [Compound 11, N-[4-S-(3-Deoxy-3-(4-(3-fluorophenyl)-1H-1,2,3-triazol-1-yl)-β-D-galactopyranosyl)-4-thio-β-D-glucopyranosyl]-N-(6-carboxy-1H-indol-4-yl)acetamide] gave an amount remaining at 2 h, 10 μM in data set [1] of 87 ± 6%. The CC50 at 24 h in data set [2] is over 300 µM; in [3], over 300 µM; in data set [4], over 300 µM; in the data set “Cytotoxicity assay, THP1”, over 300 µM. The compound further gave a microsomal CLint at 10 μM in data set [5] of under 2 µL/min/mg. In addition, the “intracellular Gal-3 signal (MFI), macrophage-like THP1 cells” value in [6] ((+)PMA differentiated THP1, 3.7–300 μM) was “concentration-dependent reduction”. The “intracellular Gal-3 signal (MFI), monocyte-like THP1 cells” value in data set [6] ((−)PMA undifferentiated THP1, 3.7–300 μM) is “concentration-dependent reduction”. This compound also yielded a kinetic solubility at 2 h in data set [7] of over 100 µM. In addition, the fraction unbound at 4 h, 10 μM is 0.57 in [8] and 0.55 in data set [9].
